{
  "source": "patent US9097706B2",
  "about": "“Insect-based ex vivo model for testing blood-brain barrier penetration and method for exposing insect brain to chemical compounds” (ENTOMOPHARM APS, priority 2009, dated 2015)",
  "key": {"[1]": {"test_system": "grasshopper BBB (locusta migratoria brain in its cuticle shell)", "protocol": "1. […] The insects may be obtained from local suppliers or bred in house. The grasshoppers were reared under crowded conditions at 28° C. and a 12:12 dark:light photocycle and fed fresh grass and bran. Before experiments the grasshoppers were fed ecologically cultivated wheat for two weeks. Animals used are adult males (in some experiments females) between two to four weeks after adult emergence. A cut is made through the frontal part of the locust head comprising the most frontal parts including the antennae, the compound eyes, the brain and all neural connections between the brain and the antennae and the eyes. This preparation in its cuticle shell is placed in a well of a microtitre plate containing the test solution. After various times of exposure the preparation is washed in saline and the brain is dissected under microscope with fine forceps. The neural lamella surrounding the brain is removed in saline and the brain is then […] in saline, centrifuged and the supernatant frozen until analyses. Drug concentration is analysed by HPLC, LC/MSMS or other methods.\n(§1) A cut was made through the frontal part of the head of adult female locusta migratoria. Each brain in its cuticle shell was placed in a 0.12 mg/ml mianserin solution for 5 minutes. The brain was prepared in saline and removed from the cuticle shell and three brains were placed in each test tube containing 100 ul distilled H2O. 200 ul ACN was added to each tube and the tubes were placed in a sonicator and the brains were disintegrated by approximately 5 seconds of sonication. The samples containing the disintegrated brains were centrifuged for 5 minutes (10000 g at 4° C.).\nas §1, with “shell. The brains were washed in Saline. After wash” for “shell and”, “sonication.” for “sonication. The samples containing the disintegrated brains were centrifuged for 5 minutes (10000 g at 4° C.).”\nA cut was made through the frontal part of the head of adult female locusta migratoria. Each brain in its cuticle shell was placed in a 0.12 mg/ml mianserin solution for 5 minutes. The brain was prepared in saline and removed from the cuticle shell. To stain the neural lamella Evans Blue was added and the neural lamella was removed. Three brains were placed in each test tube containing 100 ul distilled H2O. 200 ul ACN was added to each tube and the tubes were placed in a sonicator and the brains were disintegrated by approximately 5 seconds of sonication.\nA cut was made through the frontal part of the head of the adult locusta migratoria. Each brain in its cuticle shell was placed in a 0.9 mg/ml mianserin solution for 5 minutes. The brain was prepared in saline and removed from the cuticle shell. Three brains were placed in a test tube containing 100 ul PBS. 200 ul ACN was added to each tube. The tubes were placed in a sonicator and the brains were disintegrated by approximately 5 seconds of sonication.\nA cut was made through the frontal part of the head of the adult locusta migratoria. Each brain was placed for 5 minutes in a microtiter well with an approximately 0.95 mg/ml solution of mianserin. To stain the neural lamella Evans Blue was added and the neural lamella was removed. Two brains are placed in each test tube and 100 ul distilled H2O and 200 ul ACN is added. The tubes were placed in a sonicator and the brains were disintegrated by approximately 5 seconds of sonication.\nA cut was made through the frontal part of the head of the adult locusta migratoria. […] To stain the neural lamella Evans Blue was added and the neural lamella was removed."}, "Blattodea BBB": {"test_system": "Blattodea BBB", "conditions": "for average concentration in brain supernatant measured by LCMS: Blattodea", "description": "A cut was made through the frontal part of the head of the Blattodea. Each brain was placed for 5 minutes in a microtiter well with an approximately 1.0 mg/ml solution of trazodone. To stain the neural lamella Evans Blue was added and the neural lamella was removed. Two brains are placed in each test tube and 50 ul distilled H2O and 100 ul ACN is added. The tubes were placed in a sonicator and the brains were disintegrated by approximately 5 seconds of sonication."}, "locust brain barrier": {"test_system": "locust brain barrier", "assay": "Visual inspection of Evans Blue permeation through the locust brain barrier", "type": "in vitro ADME, Locusta migratoria", "conditions": "5 minutes in Evans Blue; neural lamella removed", "protocol": "A cut was made through the frontal part of the head of the adult locusta migratoria. Each brain was placed for 5 minutes in a microtiter well containing a mixture of Evans Blue. The neural lamella was removed from the brain."}, "[2]": {"conditions": "Locusta migratoria, 5 min, 0.9 mg/ml"}},
  "note": "Where two headings read alike, the source gives them in different places.",
  "data": [
    {"smiles": "Cn1c(=O)c2c(ncn2C)n(C)c1=O", "note": "[caffeine]", "values": [
      {"measurement": "average concentration in brain supernatant measured by LCMS", "setting": "[1]; approximately 0.78 mg/ml solution, 5 minutes, neural lamella removed, two brains per tube", "value": 1533, "unit": "ng/mL"},
      {"measurement": "permeation of the grasshopper BBB (in words)", "setting": "[1]; conclusion from the examples", "value": "permeate the grasshopper BBB to a much larger extent than peripheral acting drugs"},
      {"measurement": "average concentration in brain supernatant measured by LCMS", "setting": "Blattodea BBB; approximately 0.1 mg/ml solution, 5 minutes, neural lamella removed, two brains per tube", "value": 152, "unit": "ng/mL"},
      {"measurement": "average concentration in brain supernatant measured by LCMS", "setting": "Blattodea BBB; approximately 1.0 mg/ml solution, 5 minutes, neural lamella removed, two brains per tube", "value": 1028, "unit": "ng/mL"},
      {"measurement": "permeation of the Blattodea BBB (in words)", "setting": "Blattodea BBB; conclusion from Examples AB-AG", "value": "permeate the Blattodea BBB to a much larger extent than atenolol"}
    ]},
    {"smiles": "O=c1n(CCCN2CCN(c3cccc(Cl)c3)CC2)nc2ccccn12", "note": "[trazodone]", "values": [
      {"measurement": "permeation of the grasshopper BBB (in words)", "setting": "[1]", "value": "permeate the grasshopper BBB to a much larger extent than peripheral acting drugs"},
      {"measurement": "average concentration in brain supernatant measured by LCMS", "setting": "[1]; [2]", "value": 1317, "unit": "ng/mL"},
      {"measurement": "permeation of the Blattodea BBB (in words)", "setting": "Blattodea BBB", "value": "permeate the Blattodea BBB to a much larger extent than atenolol"},
      {"measurement": "average concentration in brain supernatant measured by LCMS", "setting": "Blattodea BBB; 5 min, 0.1 mg/ml", "value": 127, "unit": "ng/mL"},
      {"measurement": "average concentration in brain supernatant measured by LCMS", "setting": "Blattodea BBB; 5 min, 1 mg/ml", "value": 768, "unit": "ng/mL"}
    ]},
    {"smiles": "Cc1cc(-c2ccc(/N=N/c3ccc4c(S(=O)(=O)O)cc(S(=O)(=O)O)c(N)c4c3O)c(C)c2)ccc1/N=N/c1ccc2c(S(=O)(=O)O)cc(S(=O)(=O)O)c(N)c2c1O", "note": "[Evans Blue]", "values": [
      {"measurement": "permeation through the locust brain barrier (visual signs in brain)", "setting": "locust brain barrier", "value": "no significant permeation"}
    ]},
    {"smiles": "CC(C)NCC(O)COc1cccc2ccccc12", "note": "(stereo not shown) [propranolol]", "values": [
      {"measurement": "permeation of the grasshopper BBB (in words)", "setting": "[1]", "value": "permeate the grasshopper BBB to a much larger extent than peripheral acting drugs"},
      {"measurement": "average concentration in brain supernatant measured by LCMS", "setting": "[1]; Locusta migratoria, 5 min, 0.72 mg/ml", "value": 674, "unit": "ng/mL"}
    ]},
    {"smiles": "CN1CCN2c3ccccc3Cc3ccccc3C2C1", "note": "(stereo not shown) [mianserin]", "values": [
      {"measurement": "[with lamella]/[without lamella] ratio", "setting": "[1]; Locusta migratoria, 5 min, 0.1 mg/ml", "value": 1.7},
      {"measurement": "[with lamella]/[without lamella] ratio", "setting": "[1]; [2]", "value": 2.3},
      {"measurement": "average concentration in brain supernatant measured by LCMS", "setting": "[1]; Locusta migratoria, 5 min, 0.95 mg/ml", "value": 1439, "unit": "ng/mL"}
    ]}
  ]
}
